According to US5807688A (priority 1995, dated 1998):
Where “and” joins values, the source holds several entries; their conditions need not be identical. Identical values can stand only once.

What was measured:
[1] = molecular target: monoclonal antibody 6D9, raised to phosphonate haptens (2.53) and (2.54); settings: cited from earlier work
[2] = molecular target: carboxypeptidase G2 (CPG2) (Pseudomonas sp., UniProt P06621); settings: cited from earlier work
[3] = mouse, in vivo, ip, 0.5 h; cited from earlier work
[4] = test system: JAR human choriocarcinoma cell line; settings: cited from earlier work
[5] = molecular target: catalytic monoclonal antibody DF8-D5 (IgG1), elicited to phosphonamidate ester hapten (7.2), hybridoma ECACC 96042612; assay type: biochemical, mouse; settings: for Km / kcat / kcat/Km / kcat/kun: pH 6.5
[6] = molecular target: monoclonal antibody EA11-D7 (IgG1), Appendix line 32, elicited to TSA (7.2); assay type: binding, mouse
[7] = test system: monoclonal antibody AB9-16H6 (IgG1), Appendix line 3, elicited to TSA (7.4); assay type: binding, mouse; settings: inhibition elisa; read-out: aK (ELISA) (converted)
[8] = test system: monoclonal antibody AC7-4A10 (IgG1), Appendix line 8, elicited to TSA (7.4); assay type: binding, mouse; settings: inhibition elisa; read-out: aK (ELISA) (converted)
[9] = test system: monoclonal antibody CC11-4B4 (IgG1), Appendix line 1, elicited to TSA (7.4); assay type: binding, mouse; settings: inhibition elisa; read-out: aK (ELISA) (converted)
[10] = test system: monoclonal antibody DG10-8G7 (IgG1), Appendix line 4, elicited to TSA (7.4); assay type: binding, mouse; settings: inhibition elisa; read-out: aK (ELISA)
[11] = test system: monoclonal antibody CF7 (IgG2a), Appendix line 14, elicited to TSA (7.2); assay type: binding, mouse
[12] = molecular target: monoclonal antibody CF6 (IgG1), Appendix line 13, elicited to TSA (7.2); assay type: binding, mouse
[13] = test system: monoclonal antibody 49.AG.659.12; settings: cited from earlier work
[14] = test system: monoclonal antibody EA11-D7; assay type: binding, mouse; settings: read-out: I50
[15] = test system: antibody NPN43C9, elicited to phosphonamidate hapten (9.11); design: kcat/Km: unit not given here; settings: cited from earlier work; for Kd: read-out: Kd or Ki
[16] = test system: chorismate mutase (EC 5.4.99.5), E. coli enzyme; settings: cited from earlier work

Sequence of carboxypeptidase G2 (CPG2) (P06621 23-415): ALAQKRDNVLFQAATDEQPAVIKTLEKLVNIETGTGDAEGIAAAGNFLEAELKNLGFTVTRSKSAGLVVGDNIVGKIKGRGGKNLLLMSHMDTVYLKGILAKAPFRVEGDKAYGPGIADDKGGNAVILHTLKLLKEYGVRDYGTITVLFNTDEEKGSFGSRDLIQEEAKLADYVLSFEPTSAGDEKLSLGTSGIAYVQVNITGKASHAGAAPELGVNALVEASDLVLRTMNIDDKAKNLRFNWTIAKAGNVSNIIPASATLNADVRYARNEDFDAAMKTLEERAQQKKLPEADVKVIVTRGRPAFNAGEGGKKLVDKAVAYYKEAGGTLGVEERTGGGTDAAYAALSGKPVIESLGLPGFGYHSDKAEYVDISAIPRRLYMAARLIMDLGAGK

In the case of `O=C(N[C@H](CO)[C@H](OP(=O)(O)Cc1ccc(NC(=O)C(F)(F)F)cc1)c1ccc([N+](=O)[O-])cc1)C(Cl)Cl` [2.54], the Ki [1] is given as 60 nM.

In the case of `O=C(Cc1ccc(NC(=O)C(F)(F)F)cc1)O[C@H](c1ccc([N+](=O)[O-])cc1)[C@@H](CO)NC(=O)C(Cl)Cl` [2.56], the “rate enhancement, kcat/kuncat” value [1] is given as 1.8×10^3.

For `O=C(O)CC[C@H](NC(=O)c1ccc(N(CCCl)CCCl)cc1)C(=O)O` [3.4, para-[bis(2-chloroethyl)amino]benzoyl-Lglutamic acid], the Km [2] is given as 4.9 µM, the “mean concentration, Gut” value [3] is given as 12.3 and the “mean concentration, Kidney” value [3] is given as 2.9. The “mean concentration, Liver” value [3] was 22.0, the “mean concentration, Lung” value [3] was 0.2 and the “mean concentration, Tumour” value [3] was less than 0.05.

For `CS(=O)(=O)OCCN(CCCl)c1ccc(C(=O)O)cc1` [3.16], the IC50 [4] is listed as 220000 ± 10000 nM.

For `CCOP(=O)(Cc1ccc(NC(=O)CCCC(=O)O)cc1)Nc1cc(C(=O)O)cc(C(=O)O)c1` (stereo not drawn) [7.6, Ethyl N-[(3,5-dicarboxy)phenyl]-P-[N-(4'-carboxybutyroyl)-4-aminophenylmethyl]phosphonamidate], the Ki [5] was 25 nM and 40 nM and the Kd [6] was less than 4 nM.

Work on `O=C(O)CCCC(=O)Nc1ccc(CP(=O)(O)Nc2cc(C(=O)O)cc(C(=O)O)c2)cc1` [7.7, N-[(3,5-Dicarboxy)phenyl]-P-[N-(4'-carboxybutyroyl)-4-aminophenyl-methyl]phosphonamidic acid] yielded an IC50 [7] of 833 nM, an IC50 [8] of 0.455 nM and an IC50 [9] of 76.9 nM. It also gave an IC50 [10] of 10 nM.

For `CCOP(=O)(Cc1ccc(N)cc1)Nc1cc(C(=O)O)cc(C(=O)O)c1` (stereo not drawn) [7.37, Ethyl N-[(3,5-dicarboxy)phenyl]-P-(4-aminophenylmethyl)phosphonamidate], the “Ka (BIAcore)” value [11] was “no binding”, the “kd, mean” value ([6]; biacore) was 2.54e-05 s⁻¹ and the “Ka (BIAcore)” value [12] was 2.19e+08 M⁻¹. For the same compound, the ka ([12]; biacore) was 56600 M⁻¹ s⁻¹ and the kd ([12]; biacore) was 0.000258 s⁻¹.

For `O=C(Nc1cc(C(=O)O)cc(C(=O)O)c1)Oc1ccc(N(CCCl)CCCl)cc1` [9.2], the “cytotoxicity of the prodrug alone” value (LoVo cells) was “significant amount of background cytotoxicity”.

For `CC(C)[C@@H](N)C(=O)OC[C@H]1O[C@@H](n2cc(F)c(=O)[nH]c2=O)C[C@@H]1O` [9.4], the Km [13] is given as 215 µM and 218 µM and the kcat [13] is given as 0.0005 s⁻¹.

In the case of `CCOP(=O)(O)Cc1ccc([N+](=O)[O-])cc1` [9.8], the IC50 [14] is reported as 30 nM.

With `O=C(Nc1cc(C(=O)O)cc(C(=O)O)c1)Oc1ccc([N+](=O)[O-])cc1` [9.9, 4-nitrophenyl N-(3,5-dicarboxyphenyl)carbamate] the Km [5] was 120 µM, the kcat [5] was 0.3 s⁻¹ and the kcat/Km [5] was 0.15 E6. The kcat/kun [5] was 300.

For `O=C(Nc1cc(C(=O)O)cc(C(=O)O)c1)Oc1ccc(Br)cc1` [9.12, 4-bromophenyl N-(3,5-dicarboxyphenyl)carbamate], the Km [5] was 80 µM, the kcat [5] was 0.1 s⁻¹ and the kcat/Km [5] was 0.075 E6. The kcat/kun [5] was 1 E5.

Compound `O=C(Nc1cc(C(=O)O)cc(C(=O)O)c1)Oc1ccc(F)cc1` [9.13, 4-Fluorophenyl N-[(3,5-dicarboxy)phenyl]carbamate] has a Vmax [5] of 1.1 µM/min, a Km [5] of 41 µM and a kcat [5] of 0.12 s⁻¹. For the same compound, the kcat/Km [5] was 0.17 E6 and the kcat/kun [5] was 4 E5.

With `COc1ccc(OC(=O)Nc2cc(C(=O)O)cc(C(=O)O)c2)cc1` [9.14, 4-methoxyphenyl N-(3,5-dicarboxyphenyl)carbamate] the Km [5] was 58 µM, the kcat [5] was 0.0817 s⁻¹ and the kcat/Km [5] was 0.08 E6. For the same compound, the kcat/kun [5] was 1.2 E6.

For `CC(=O)c1ccc(OC(=O)Cc2ccccc2)cc1` [CH3 CO], the Km [15] is listed as roughly 3000 µM, the kcat [15] is listed as “ca. 0.87 s^-1” and the kcat/Km [15] is listed as “ca. 0.282”.

For `O=Cc1ccc(OC(=O)Cc2ccccc2)cc1` [CHO], the Km [15] is listed as 250 µM, the kcat [15] is listed as 1.0 ± 0.1 s⁻¹ and the kcat/Km [15] is listed as 4.1. The Kd [15] was 90000 ± 10000 nM.

In the case of `O=C(Cc1ccccc1)Oc1ccc(Cl)cc1` [Cl], the Km [15] is listed as 720 µM, the kcat [15] is listed as 1.7 ± 0.2 s⁻¹ and the kcat/Km [15] is listed as 0.049. For the same compound, the Kd [15] was 180000 ± 40000 nM.

In the case of `Cc1ccc(OC(=O)Cc2ccccc2)cc1` [Me], the Km [15] is given as roughly 3000 µM, the kcat [15] is given as 0.15 ± 0.03 s⁻¹ and the kcat/Km [15] is given as 1.01.

For `O=C(Cc1ccccc1)Oc1ccc([N+](=O)[O-])cc1` [NO2], the Km [15] is listed as 53 µM, the kcat [15] is listed as “ca. 25 s^-1” and the kcat/Km [15] is listed as “ca. 470”. The Kd [15] was 1000 nM.

For `C=C(O[C@@H]1C=C(C(=O)O)C=C[C@H]1O)C(=O)O` [chorismate, (-)-Chorismic acid], the Km [16] is listed as 15 µM.
